Test results from PubChem BioAssay (NCI).
Values joined by “and” are separate entries in the source; they are usually repeats but may differ in a detail not shown here. Equal entries are not always repeated.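 Results reflect a 48-hour exposure of cells in 96-well plates to compound at five concentrations. GI50 = concentration required for 50% inhibition of growth. TGI denotes the concentration required for complete inhibition of growth.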 Where a SMILES comes first, the peptide text is derived from it. The star is where a group is joined. Fmoc = O=C(OCC1c2ccccc2-c2ccccc21)*; OtBu = CC(C)(C)O*

Experiments:
Test in all cases: NCI-60 cell line screen, 48 h
NCI-H522 lung = system: NCI-H522 lung
HCC-2998 colon = system: HCC-2998 colon
HOP-62 NSCLC = system: HOP-62 NSCLC
NCI-H226 lung = system: NCI-H226 lung
SK-MEL-28 melanoma = system: SK-MEL-28 melanoma
HT29 colon = system: HT29 colon
SN12C renal = system: SN12C renal
SK-MEL-2 melanoma = system: SK-MEL-2 melanoma
PC-3 prostate = system: PC-3 prostate
BT-549 breast = system: BT-549 breast
SNB-75 CNS = system: SNB-75 CNS
MDA-N = system: MDA-N

SMILES | TGI (NCI-H522 lung) | TGI (HCC-2998 colon) [µM] | TGI (HOP-62 NSCLC) | TGI (NCI-H226 lung) [µM] | TGI (SK-MEL-28 melanoma) [µM] | TGI (HT29 colon) [µM] | TGI (SN12C renal) [µM] | TGI (SK-MEL-2 melanoma) [µM] | TGI (PC-3 prostate) [µM] | TGI (BT-549 breast) [µM] | TGI (SNB-75 CNS) | TGI (MDA-N) [µM] | GI50 (NCI-H522 lung) | GI50 (SNB-75 CNS) | GI50 (HOP-62 NSCLC) | GI50 (SK-MEL-28 melanoma) | GI50 (HT29 colon)
Cc1nc2sccn2c1C(=O)NN | > 100 µM | > 100 | > 100 µM | > 100 | > 100 | > 100 | > 100 | > 100 |  |  |  |  |  |  |  |  | 
COc1cc2c(cc1OC)OC(c1c(OC)ccc(OC)c1O)CC2 (centres undefined) |  | > 100 | > 100 µM | > 100 | > 100 | > 100 |  | > 100 | > 100 | > 100 | > 100 µM |  |  |  |  |  | 
OC12c3ccccc3C1CCCCC2N1CCCC1 (centres undefined) | > 100 µM |  | > 100 µM | > 100 | > 100 | > 100 | > 100 | > 100 |  |  | > 100 µM |  |  |  |  |  | 
N#CC(c1ccccc1)N(CCCCCCN(C(=O)c1ccccc1)C(C#N)c1ccccc1)C(=O)c1ccccc1 (centres undefined) |  | 48.1 |  | > 100 | > 100 | > 100 | > 100 | 66.3 | > 100 | > 100 | > 100 µM | > 100 |  |  |  |  | 
CSc1nc(-c2ccc(Cl)cc2)c(C#N)c(=O)n1C1OC(COC(C)=O)C(OC(C)=O)C(OC(C)=O)C1OC(C)=O (centres undefined) | 29.2 µM and > 100 µM | > 100 | 57.1 µM and > 100 µM | > 100 | > 100 | > 100 | > 100 | > 100 |  |  | 31.9 µM and > 100 µM |  | 12.1 µM and > 100 µM | 14.8 µM and > 100 µM | 23.6 µM and > 100 µM | 27.6 µM and > 100 µM | 29.3 µM and > 100 µM
CSc1ncnc2c1ncn2CCC(=O)O | > 100 µM |  | > 100 µM | > 100 | > 100 | > 100 | > 100 |  | > 100 |  | > 100 µM | > 100 |  |  |  |  | 
N#CC12C(=O)N3C(=NC(c4ccco4)NC3c3ccco3)C1(C#N)C(c1ccco1)NC1=C2CCCC1 (centres undefined) | > 100 µM | > 100 | > 100 µM | > 100 | > 100 | > 100 | > 100 | > 100 | > 100 | > 100 |  | > 100 |  |  |  |  | 
NC(=O)C1CCCN1C(=O)C(Cc1cnc[nH]1)NC(=O)C1CCCC1 (centres undefined) | > 100 µM | > 100 | > 100 µM | > 100 | > 100 | > 100 | > 100 |  | > 100 | > 100 | > 100 µM | > 100 |  |  |  |  | 
CCOc1cc(C2CC(c3ccc(NS(=O)(=O)c4cc([N+](=O)[O-])ccc4C)cc3)=NN2S(=O)(=O)c2cc([N+](=O)[O-])ccc2C)ccc1O (centres undefined) | > 100 µM |  | > 100 µM | > 100 | > 100 | > 100 | 81.3 | 62 | > 100 | > 100 |  | > 100 |  |  |  |  | 
CC(C)C(NC(=O)OCC1c2ccccc2-c2ccccc21)C(=O)NC(CCC(=O)OC(C)(C)C)C(=O)OC(C)(C)C (centres undefined) (Fmoc-Val-Glu(OtBu)-OtBu; configuration not given here) | > 100 µM | > 100 | > 100 µM | > 100 | > 100 | > 100 | > 31.6 |  | > 100 | > 100 | > 100 µM | > 100 |  |  |  |  | 
CC1=NN(c2nc(N)nc(CN3CCOCC3)n2)C(C)(C)C1 | 29.1 µM | > 100 | > 100 µM | > 100 | > 100 | > 100 | > 100 | > 100 | > 100 | > 100 | > 100 µM |  |  |  |  |  | 
Cc1ccc2c(=O)cc(-c3sccc3C)[nH]c2n1 |  | 7.13 | > 100 µM | 6.55 |  | 8.72 | > 47.2 | > 40 | > 28 | > 100 | > 100 µM | 0.359 |  |  |  |  | 
COc1ccccc1Nc1nc2c([nH]1)c(=O)n(C)c(=O)n2C |  | > 10 | > 10 µM |  | > 10 | > 10 | > 10 |  | > 10 |  | > 10 µM | > 10 |  |  |  |  | 
COc1ccc(S(=O)(=O)N2C(=O)CCC2C(=O)NC(N)=O)cc1 (centres undefined) | > 100 µM |  | > 100 µM | > 100 | > 100 | > 100 | > 100 | > 100 | > 100 | > 100 | 1.55 µM | > 100 |  |  |  |  | 
CSC1=N/C(=C\c2ccc(Cl)cc2)C(=O)N1CN1CCCCC1 | > 100 µM |  | > 100 µM | > 100 | > 100 | > 100 | > 100 | > 100 | > 100 |  | > 100 µM | > 100 |  |  |  |  | 
COc1cc2cc(OC(C)=O)c3cc4c(cc3c2c(OC)c1OC)OCO4 | > 100 µM | > 100 | > 100 µM | > 100 | > 100 | > 100 | > 100 | > 100 |  |  | > 100 µM |  |  |  |  |  | 
O=C(Nc1ccc(C(F)(F)F)cc1)NC(F)(F)F |  | > 100 |  |  | > 100 | > 100 | > 100 | > 100 | > 100 | > 100 | > 100 µM | > 100 |  |  |  |  | 
C=CC(=O)Nc1ccc(NC(=O)C=C)c2c1C(=O)c1ccccc1C2=O | 34.6 µM | > 100 | > 100 µM |  | > 100 | > 100 | > 100 | > 100 | > 100 | > 100 |  | > 100 |  |  |  |  | 
C=CCOC(=O)CC[C@H](NC(=O)[C@@H](CCC(F)(F)F)Cc1ccc(O)cc1)C(=O)OCC=C | 52.7 µM |  | > 100 µM | > 100 | 45.6 | > 100 | > 100 |  |  | > 100 | 77.2 µM | > 100 |  |  |  |  | 
CCOCCOCCOCc1nc(C#N)c(N)o1 | > 100 µM | > 100 | > 100 µM | > 100 | > 100 | > 100 | > 100 | > 100 | > 100 | > 100 | > 100 µM |  |  |  |  |  | 
